Assay results as given in PubChem BioAssay (NCI).
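Dose response: 5 concentrations. Exposure: 48 h. Format: 96-well plates. Endpoint: linear interpolation; highest concentration if not reached. TGI: concentration producing complete growth inhibition.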

Columns and labels:
Test in all cases: DTP human tumour cell line panel, 48 h
RXF 393 renal = tested on: RXF 393 renal
UACC-257 melanoma = tested on: UACC-257 melanoma
SR leukemia = tested on: SR leukemia
A498 renal = tested on: A498 renal
MALME-3M melanoma = tested on: MALME-3M melanoma
SF-539 CNS = tested on: SF-539 CNS
HOP-92 NSCLC = tested on: HOP-92 NSCLC
MCF7 breast = tested on: MCF7 breast
M14 melanoma = tested on: M14 melanoma
SK-MEL-28 melanoma = tested on: SK-MEL-28 melanoma
NCI-H23 lung = tested on: NCI-H23 lung
SN12C renal = tested on: SN12C renal
OVCAR-3 ovarian = tested on: OVCAR-3 ovarian
HOP-62 NSCLC = tested on: HOP-62 NSCLC
OVCAR-4 ovarian = tested on: OVCAR-4 ovarian
MDA-MB-231 breast = tested on: MDA-MB-231 breast
HCT-15 colon = tested on: HCT-15 colon
SNB-75 CNS = tested on: SNB-75 CNS
T-47D breast = tested on: T-47D breast

| SMILES | TGI (RXF 393 renal) [µM] | TGI (UACC-257 melanoma) [µM] | TGI (SR leukemia) [µM] | TGI (A498 renal) [µM] | TGI (MALME-3M melanoma) [µM] | TGI (SF-539 CNS) [µM] | TGI (HOP-92 NSCLC) [µM] | TGI (MCF7 breast) [µM] | TGI (M14 melanoma) [µM] | TGI (SK-MEL-28 melanoma) [µM] | TGI (NCI-H23 lung) [µM] | TGI (SN12C renal) [µM] | TGI (OVCAR-3 ovarian) [µM] | TGI (HOP-62 NSCLC) [µM] | TGI (OVCAR-4 ovarian) [µM] | TGI (MDA-MB-231 breast) [µM] | TGI (HCT-15 colon) [µM] | TGI (SNB-75 CNS) [µM] | TGI (T-47D breast) [µM] |
| --- | --- | --- | --- | --- | --- | --- | --- | --- | --- | --- | --- | --- | --- | --- | --- | --- | --- | --- | --- |
| CC(=O)OCC1OC(N2C(c3ccccc3)=CC(c3ccccc3)C(C#N)=C2S)C(OC(C)=O)C(OC(C)=O)C1OC(C)=O (stereo unspecified) | 12.9 | 16.5 | > 100 | 44.2 | 28.3 | 16.2 | 16.6 | > 65.4 | 74 | > 100 | 40.5 | 15.7 | > 63.1 | 17.9 | > 31.6 | > 40.8 | > 100 | 54.2 | > 24.3 |
| C=C(C)[C@@H](C(=O)OC)N1C(=O)c2ccccc2C1=O | > 100 | > 100 | > 100 | > 100 | > 100 | > 100 | > 100 | > 100 | > 100 | > 100 | > 100 | > 100 | > 100 | > 100 | > 100 | > 100 | > 100 | > 100 | > 100 |
| Cc1ccc2nc3ccccc3c(C3C4C(=O)N(c5ccc(Br)cc5Cl)C(=O)C4ON3C(C(N)=O)c3ccccc3)c2c1 (stereo unspecified) | > 25 | > 25 | > 25 | > 25 | > 25 | > 25 | > 25 | > 25 | > 25 | > 25 | 6.86 | 23.2 | > 25 | > 25 | > 25 | > 25 | 19.5 | > 25 | > 25 |
| CCOC(=O)C(Cl)(NC(=O)c1ccc(F)cc1)C(F)(F)F (stereo unspecified) | > 100 | > 100 | > 100 | > 100 | > 100 | > 100 | > 100 | > 100 | > 100 | > 100 | > 100 | > 100 | > 100 | > 100 | > 100 | > 100 | > 100 | > 100 | > 100 |
| COC1(OC)C2(Cl)CCC1(Cl)C(OC(C)=O)C2 (stereo unspecified) | > 100 | > 100 | > 100 | > 100 | > 100 | > 100 | > 100 | > 100 | > 100 | > 100 | > 100 | > 100 | > 100 | > 100 | > 100 | > 100 | > 100 | > 100 | > 100 |
| c1ccc2c(c1)nc1n2CNCC1 | > 100 | > 100 | > 100 | > 100 | > 100 | > 100 | > 100 | > 100 | > 100 | > 100 | > 100 | > 100 | > 100 | > 100 | > 100 | > 100 | > 100 | > 100 | > 100 |
| C=CCN1C(=O)/C(=C/c2ccccc2)NC1=S | > 100 | > 100 | > 100 | > 100 | > 100 | > 100 | > 100 | > 100 | > 100 | > 100 | > 100 | > 100 | > 100 | > 100 | > 100 | > 100 | > 100 | > 100 | > 100 |
| COc1ccc(-c2c(C(C)=O)c(-c3ccccc3)n(C3OC(COC(C)=O)C(OC(C)=O)C(OC(C)=O)C3OC(C)=O)c(=S)c2C#N)cc1 (stereo unspecified) | > 100 | > 100 | > 100 | > 100 | > 100 | > 100 | 71.7 | > 100 | > 100 | > 100 | > 100 | > 100 | > 100 | > 100 | > 100 | > 100 | > 100 | > 100 | > 100 |
| COc1ccc(OC)c2c1C(=O)C(Cl)=C(N1CCN(CCOCCO)CC1)C2=O | 33.4 | 33 | 29.3 | 30.5 | 34.9 | 32.8 | 31.8 | 15 | 31.7 | 30.9 | 21.6 | 25.5 | 31.1 | 22.7 | 32 | 27.7 | 18.4 | 29.3 | 13.1 |
| CC/C(=N/O)c1ccc(Br)s1 | > 100 | > 100 | > 100 | > 100 | > 100 | > 100 | > 100 | > 100 | > 100 | > 100 | > 100 | > 100 | > 100 | > 100 | > 100 | > 100 | > 100 | > 100 | > 100 |
| CC(C(=O)N1c2ccccc2Sc2ccccc21)N1c2ccccc2Sc2ccccc21 (stereo unspecified) | > 100 | > 100 | > 100 | > 100 | > 100 | > 100 | > 100 | > 100 | > 100 | > 100 | > 100 | > 100 | > 100 | > 100 | > 100 | > 100 | > 100 | > 100 | > 100 |
| CC(C)NC(=O)OCc1c(COC(=O)NC(C)C)c(-c2ccc[n+](COC(=O)CC(C)(C)C)c2)n2c1CCC2 | > 100 | > 100 | > 100 | > 100 | > 100 | > 100 | > 100 | > 100 | > 100 | > 100 | > 100 | > 100 | > 100 | > 100 | > 100 | > 100 | > 100 | > 100 | > 100 |
| Oc1cc(O)c2c(c1)O[C@H](c1cc(O)c(O)c(O)c1)[C@H](O)C2 | 29.6 | > 100 | 27.6 | > 100 | > 100 | 48.7 | > 100 | 40.1 | > 100 | > 100 | 65.3 | 37 | > 100 | 37.3 | 46.6 | 33.6 | > 100 | 98 | 80.7 |
| N#Cc1nc(COCCOCc2ccccc2)oc1N | > 100 | > 100 | > 100 | > 100 | > 100 | > 100 | > 100 | > 100 | > 100 | > 100 | > 100 | > 100 | > 100 | > 100 | > 100 | > 100 | > 100 | > 100 | > 100 |
